# Measurements published in patent US12679853B2, “Magnesium-serinate compound and use thereof” (priority 2018, dated 2026).
# Tests used:
# [1] = test system: mouse hippocampal neuronal HT-22 cells, treated with DMNQ; experiment: Neuronal cell protective activity against DMNQ-induced oxidative stress (DiOC6 staining, flow cytometry); assay type: cell-based; details: HT-22, DMNQ (10 μM) alone
# Method: First, 1×10^6 cells were washed three times with 2% FBS-containing PBS solution, and the washed cells were suspended in 70% ethanol and fixed at 4° C. for 1 hour. The fixed cells were washed twice with the same solution, suspended in 250 μl of RNase A solution (50 μg/ml concentration), and incubated at 37° C. for 30 minutes to remove RNA from the cells. […] The cells were analyzed with a flow cytometer (FACS Calibur), and the distribution of the cell cycle was examined based on the content of stained DNA in each cell.
# [2] = Blood-brain barrier (BBB) permeability, L-serine in blood and brain by LC/MS; parameters: species or system ICR mice; details: male, ICR, mouse, in vivo, po, 600 mg/kg
# Method: Each of L-serine and AST-011 was administered to 7-week-old ICR mice (n=3) at a dose of 600 mg/kg, and then the brain tissue and the blood were collected. The concentrations of L-serine distributed in the blood and the brain were quantified using LC/MS, and the BBB permeability was compared between the drugs by calculating the ratio of the concentration of L-serine in the brain to that in the blood.
# [3] = test system: Murine hippocampal neuronal cell line HT-22; experiment: Cell viability (MTT) assay for neuronal cell proliferation activity
# Method: Murine hippocampal neuronal cell line HT-22 was cultured in Dulbecco's Modified Eagle's Medium (DMEM) supplemented with 10% fetal bovine serum (FBS) and 100 μg/ml gentamycin at 37° C. under a 5% CO2 atmosphere. In this Example, cells at passage 15 or below were used.
# Cell proliferation activity was examined by an MTT assay for measuring cell viability. First, hippocampal neuronal cell HT-22 (1×10^4 cells) was incubated with each of serially diluted sample solutions in 96-well plates for 16 hours, and then mixed with 50 μl of MTT (3-(4,5-dimethyl thiazolyl)2,5-diphenyl tetrazolium bromide) solution (1.1 mg/ml), followed by additional incubation for 4 hours. The formed formazan crystal was dissolved in 150 μl of DMSO solution, and the optical density (OD) at 540 nm was measured using a plate reader.
# [4] = test system: mitochondria in the hippocampal neuron cell line HT-22; experiment: Seahorse XF Cell Mito Stress Test, mitochondrial oxygen consumption rate; details: HT-22, 4 h drug treatment, various concentrations
# Method: All procedures were performed according to the protocol of the Mito Stress Test Kit. First, hippocampal neuronal HT-22 cells were seeded into an XP-96 cell culture plate at a density of 8×10^3 cells/well, and then incubated in DMEM medium in a CO2 incubator at 37° C. for 12 hours. Then, the cells were treated with various concentrations of each of serine and the AST-011 drug. 4 hours after drug treatment, the medium was replaced with fresh medium, and the cells were further incubated in a CO2 incubator at 37° C. for 12 hours. After 12 hours of incubation, the cells were washed twice with assay medium (10 mM glucose, 1 mM pyruvate, 2 mM glutamine, pH 7.4), and 180 μl of medium was added thereto. Then, the cells were incubated in a non-CO2 incubator at 37° C. for 1 hour, and analyzed by a Seahorse extracellular flux (XF) analyzer.
SMILES,cell damage rate [1],Concentration Plasma (L-serine) [2],"activation of cell proliferation ([3]; HT-22, complete medium, 25 to 10,000 μg)","viability at 500 µg/mL ([3]; Mus musculus, HT-22, read-out: cell viability)",oxygen consumption rate (OCR) value of mitochondria [4]
"COC1=C(OC)C(=O)c2ccccc2C1=O [DMNQ, 2,3-dimethoxy-1,4-napthoquinone]",77.8%,–,–,–,–
N[C@@H](CO)C(=O)O [L-serine],–,636 ± 55.2 ng/mL,did not significantly activate cell proliferation,125%,OCR value increased at a treatment concentration of up to 100 μg/ml and then decreased slightly at 500 μg/ml
